Source: patent publication US20070128217A1 (priority 2003, published 2007)

Key:
[1] = test system: control sera (pooled serum of ten healthy LUMC hospital workers; commercial negative donor pooled serum from the Dutch bloodbank); format: binding, human; set-up: Binding of Control serum LUMC to linear peptides / Binding of Control serum Blood-bank to linear peptides / Binding of Control serum LUMC to looped peptides / Binding of Control Serum Blood-Bank to Looped peptides / Binding of Control serum LUMC to linear peptides of the protein M of SARS-CoV Urbani / Binding of Control serum Blood-bank to linear peptides of the protein M of SARS-CoV Urbani / Binding of Control serum LUMC to looped peptides of the protein M of SARS-CoV Urbani / Binding of Control Serum Blood-Bank to Looped peptides of the protein M of SARS-CoV Urbani: unit not given here
[2] = test system: antibodies in sera from SARS patients (sera 1a, 1b, 2, 6, 37, 62, London, SARS-yellow, SARS-green); format: binding, human; set-up: Binding of serum 6 to linear peptides of protein X1 of SARS-CoV Urbani / Binding of serum 37 to linear peptides of protein X1 of SARS-CoV Urbani / Binding of serum 6 to looped/cyclic peptide (PEPSCAN-ELISA) / Binding of serum 37 to looped/cyclic peptide (PEPSCAN-ELISA) / Binding of serum 37 to looped/cyclic peptides of protein X1 of SARS-CoV Urbani / Binding of serum 6 to linear peptides of protein X2 / Binding of serum 37 to linear peptides of protein X2 / Binding of serum 37 to looped/cyclic peptides of protein X2 of SARS-CoV Urbani / Binding of serum 6 to linear peptides of protein M of SARS-CoV Urbani / Binding of serum 37 to linear peptides of protein M of SARS-CoV Urbani / Binding of serum 6 to looped/cyclic peptides of protein M of SARS-CoV Urbani / Binding of serum 37 to looped/cyclic peptides of protein M of SARS-CoV Urbani / Binding of serum 6 to linear peptides of protein X3 of SARS-CoV Urbani / Binding of serum 37 to linear peptides of protein X3 of SARS-CoV Urbani / Binding of serum 37 to looped/cyclic peptides of protein X3 of SARS-CoV Urbani / Binding of serum 6 to linear peptides of protein X4 of SARS-CoV Urbani / Binding of serum 37 to linear peptides of protein X4 of SARS-CoV Urbani / Binding of serum 37 to looped/cyclic peptides of protein X4 of SARS-CoV Urbani / Binding of serum 6 to linear peptides of protein X5 of SARS-CoV Urbani / Binding of serum 37 to linear peptides of protein X5 of SARS-CoV Urbani / Binding of serum 37 to looped/cyclic peptides of protein X5 of SARS-CoV Urbani / Binding of serum 6 to linear peptides of protein N of SARS-CoV Urbani / Binding of serum 37 to linear peptides of protein N of SARS-CoV Urbani / Binding of serum 6 to linear peptide (PEPSCAN-ELISA) / Binding of serum 1a to looped/cyclic peptides of protein N of SARS-CoV Urbani / Binding of serum 1b to looped/cyclic peptides of protein N of SARS-CoV Urbani / Binding of serum 2 to looped/cyclic peptides of protein N of SARS-CoV Urbani / Binding of serum 6 to looped/cyclic peptides of protein N of SARS-CoV Urbani / Binding of serum 37 to looped/cyclic peptides of protein N of SARS-CoV Urbani / Binding of serum 62 to looped/cyclic peptides of protein N of SARS-CoV Urbani / Binding of serum London to looped/cyclic peptides of protein N of SARS-CoV Urbani / Binding of serum SARS-green to looped/cyclic peptides of protein N of SARS-CoV Urbani: unit not given here
[3] = test system: rabbit serum obtained by immunizing a rabbit with the SARS-CoV strain Frankfurt 1; format: binding; set-up: Binding of a rabbit serum to linear peptides / Binding of a rabbit serum to looped peptides / Rabbit serum linear peptides / Rabbit serum looped peptides / Binding of a rabbit serum to linear peptides of protein N of SARS-CoV Urbani (Rabbit serum linear peptides) / Binding of a rabbit serum to looped/cyclic peptides of protein N of SARS-CoV Urbani (Rabbit serum looped peptides): unit not given here

| Sequence | Binding of Control Serum Blood-Bank to Looped peptides [1] | Binding of Control serum Blood-bank to linear peptides [1] | Binding of Control serum LUMC to linear peptides [1] | Binding of Control serum LUMC to looped peptides [1] | Binding of serum 1a to linear peptides of protein X2 [2] | Binding of serum 1a to looped/cyclic peptides of protein X2 of SARS-CoV Urbani [2] | Binding of serum 1b to linear peptides of protein X2 [2] | Binding of serum 1b to looped/cyclic peptides of protein X2 of SARS-CoV Urbani [2] | Binding of serum 2 to linear peptides of protein X2 [2] | Binding of serum 2 to looped/cyclic peptides of protein X2 of SARS-CoV Urbani [2] | Binding of serum 6 to linear peptides of protein X2 [2] | Binding of serum 6 to looped/cyclic peptides of protein X2 of SARS-CoV Urbani [2] | Binding of serum 37 to linear peptides of protein X2 [2] | Binding of serum 37 to looped/cyclic peptides of protein X2 of SARS-CoV Urbani [2] | Binding of serum 62 to linear peptides of protein X2 [2] | Binding of serum 62 to looped/cyclic peptides of protein X2 of SARS-CoV Urbani [2] | Binding of serum London to linear peptides of protein X2 [2] | Binding of serum London to looped/cyclic peptides of protein X2 of SARS-CoV Urbani [2] | Binding of a rabbit serum to linear peptides [3] | Binding of a rabbit serum to looped peptides [3] | also measured |
| --- | --- | --- | --- | --- | --- | --- | --- | --- | --- | --- | --- | --- | --- | --- | --- | --- | --- | --- | --- | --- | --- |
| FTTSLSLHKLLQTLV | 2.0 | 0.6 | 0.5 | 1.6 | 0.5 | 2.1 | 0.5 | 2.5 | 0.4 | 1.2 | 0.6 | 0.8 | 0.5 | 1.3 | 0.5 | 1.7 | 0.4 | 1.0 | 0.1 | 0.9 | Binding of serum SARS-green to linear peptides of protein X2 [2]: 0.5; Binding of serum SARS-green to looped/cyclic peptides of protein X2 of SARS-CoV Urbani [2]: 1.7; Binding of serum SARS-yellow to linear peptides of protein X2 [2]: 0.4; Binding of serum SARS-yellow to looped/cyclic peptides of protein X2 of SARS-CoV Urbani [2]: 1.3 |
| VHGYFTEVYYQLEST | 0.5 | 0.4 | 0.5 | 0.7 |  |  |  |  |  |  |  |  |  |  |  |  |  |  | 0.1 | 0.6 | Binding of serum 1a to linear peptides of protein X1 of SARS-CoV Urbani [2]: 0.7; Binding of serum 1a to looped/cyclic peptides of protein X1 of SARS-CoV Urbani [2]: 0.5; Binding of serum 1b to linear peptides of protein X1 of SARS-CoV Urbani [2]: 0.5; Binding of serum 1b to looped/cyclic peptides of protein X1 of SARS-CoV Urbani [2]: 0.4; Binding of serum 2 to linear peptides of protein X1 of SARS-CoV Urbani [2]: 0.4; Binding of serum 2 to looped/cyclic peptides of protein X1 of SARS-CoV Urbani [2]: 0.5; Binding of serum 6 to linear peptides of protein X1 of SARS-CoV Urbani [2]: 0.4; Binding of serum 6 to looped/cyclic peptides of protein X1 of SARS-CoV Urbani [2]: 0.3; Binding of serum 37 to linear peptides of protein X1 of SARS-CoV Urbani [2]: 0.4; Binding of serum 37 to looped/cyclic peptides of protein X1 of SARS-CoV Urbani [2]: 0.5; Binding of serum 62 to linear peptides of protein X1 of SARS-CoV Urbani [2]: 0.3; Binding of serum 62 to looped/cyclic peptides of protein X1 of SARS-CoV Urbani [2]: 0.6; Binding of serum London to linear peptides of protein X1 of SARS-CoV Urbani [2]: 0.2; Binding of serum London to looped/cyclic peptides of protein X1 of SARS-CoV Urbani [2]: 0.2; Binding of serum SARS-green to linear peptides of protein X1 of SARS-CoV Urbani [2]: 0.1; Binding of serum SARS-green to looped/cyclic peptides of protein X1 of SARS-CoV Urbani [2]: 0.3; Binding of serum SARS-yellow to linear peptides of protein X1 of SARS-CoV Urbani [2]: 0.3; Binding of serum SARS-yellow to looped/cyclic peptides of protein X1 of SARS-CoV Urbani [2]: 0.5 |
| KYTQSTALQELLIQQ | 0.9 | 0.6 | 0.5 | 1.0 | 0.7 | 0.8 | 0.6 | 1.0 | 0.4 | 0.7 | 0.5 | 0.7 | 0.6 | 0.8 | 0.6 | 1.0 | 0.5 | 0.5 | 0.4 | 0.4 | Binding of serum SARS-green to linear peptides of protein X2 [2]: 0.6; Binding of serum SARS-green to looped/cyclic peptides of protein X2 of SARS-CoV Urbani [2]: 0.9; Binding of serum SARS-yellow to linear peptides of protein X2 [2]: 0.6; Binding of serum SARS-yellow to looped/cyclic peptides of protein X2 of SARS-CoV Urbani [2]: 0.8 |
